Source: article PMC11145868, “Protein target similarity is positive predictor of in vitro antipathogenic activity: a drug repurposing strategy for Plasmodium falciparum” (Journal of Cheminformatics, 2024)
Counter-ions that a name gives are not always drawn. Like-named read-outs stand apart in the source and are kept apart here. Numbered stars: 1 amine (or outer) side, 2 acyl side, 3 side chain; on linkers, the order of the positions; unused ones are H or OH. Bridge positions count the residues as written; N and C are the ends. Square brackets hold non-standard residues; d marks the D form. Peptide text beside a SMILES is read from it. I, II: the chains in the order shown. Actinocin(9to1) = Cc1c2oc3c(C)ccc(C(=O)[*:1])c3nc-2c(C(=O)[*:2])c(N)c1=O; NMeV = CN[C@H](C(=O)O)C(C)C; Sar = CNCC(=O)O

Legend:
P. falciparum Dd2-HLH [1] = assay: microbe, parasite or virus in culture; format: cell-based, Plasmodium falciparum
[2] = biological target: P. berghei-luciferase sporozoites; assay: microbe, parasite or virus in culture; format: cell-based, Plasmodium berghei
HEK293T cells [3] = test system: HEK293T cells
HepG2 cells [4] = test system: HepG2 cells
P. falciparum Dd2-HLH [5] = assay: microbe, parasite or virus in culture; format: cell-based, Plasmodium falciparum; remark: listed apart in the source
in vitro [6] = details: human
in vitro [7] = details: human; remark: listed apart in the source
HepG2 cells [8] = assay: Mammalian cell cytotoxicity assay, HepG2 (CellTiter-Glo, 72 h); details: read-out: HEP CC50
HEK293T cells [9] = assay: Mammalian cell cytotoxicity assay, HEK293T (CellTiter-Glo, 72 h); details: read-out: HEK CC50
[10] = Mammalian cell cytotoxicity assay, HepG2 (CellTiter-Glo, 72 h); details: human
[11] = test system: P. falciparum (NF54 drug-sensitive strain); set-up: method as in PMID 28446690; details: read-out: EC50 against intraerythrocytic lifecycle stages of P. falciparum; cited from earlier work
[12] = test system: P. falciparum blood-stage; set-up: method as in PMID 28874661; details: read-out: EC50 against P. falciparum blood-stage growth in vitro; cited from earlier work
PfPKG = details: read-out: IC50 in PfPKG kinase assays; cited from earlier work
[13] = P. falciparum blood-stage parasites, 72 hours in culture, read-out: Blood stage 72h EC50
[14] = liver-stage parasites, 48 hours in culture, read-out: Liver stage 48h EC50
[15] = Plasmodium falciparum, DD2, 48 h, read-out: Blood stage 48h EC50
[16] = Plasmodium falciparum, DD2, 72 h, read-out: Blood stage 72h EC50
[17] = Plasmodium berghei, HepG2, liver-stage parasites, 48 hours in culture, read-out: Liver stage 48h EC50
[18] = P. falciparum blood-stage parasites, 48 hours in culture, read-out: Blood stage 48h EC50
[19] = Plasmodium falciparum, DD2, blood-stage parasites, 48 h in culture, read-out: Blood stage 48 h EC50
[20] = Plasmodium falciparum, DD2, blood-stage parasites, 72 h in culture, read-out: Blood stage 72 h EC50
[21] = Plasmodium berghei, liver-stage parasites, 48 h in culture, read-out: Liver 48 h EC50

| Compound | EC50 (P. falciparum Dd2-HLH [1]; [13]) [nM] | EC50 [2, 14] [nM] | CC50 (HEK293T cells [3]) [nM] | CC50 (HepG2 cells [4]) [nM] | EC50 (P. falciparum Dd2-HLH [5]; [18]) [nM] | other results |
| --- | --- | --- | --- | --- | --- | --- |
| COc1ccc(C)cc1NC(=O)Nc1nc2ccc(Nc3ncnc4cc(OCCCN5CCN(C)CC5)c(OC)cc34)cc2s1 [Compound 4SC-203] | 729 | 3330 | 3000 | 4690 | – | – |
| CCN(CCO)CCCOc1ccc2c(Nc3cc(CC(=O)Nc4cccc(F)c4)n[nH]3)ncnc2c1 [Barasertib-HQPA] | – | – | – | – | – | EC50 (P. falciparum Dd2-HLH [5]; [15]): 253 nM; EC50 (P. falciparum Dd2-HLH [1]; [16]): 539 nM; EC50 [2, 17]: 4620 nM; CC50 (in vitro [6]): > 9950 nM; CC50 (in vitro [7]): > 9990 nM |
| O=C1c2ccccc2C(=O)c2sc(-c3ccco3)nc21 [INO-5042] | 403 | 2070 | 1330 | 705 | – | – |
| O=C(CC1c2ccccc2C(=O)N1c1ccc2ccc(Cl)nc2n1)N1CCC2(CC1)OCCO2 (stereo not shown) [Pazinaclone] | 427 | > 10000 | – | – | 77 | CC50 (HepG2 cells [8]; HepG2 cells): > 9950 nM; CC50 (HEK293T cells [9]; HEK293T cells): > 9950 nM |
| CCNCc1cncc(-c2ccc3[nH]nc(-c4nc5c(F)cc(F)cc5[nH]4)c3c2)c1C [AG-024322] | 423 | 2990 | 145 | 112 | – | – |
| CCOC(=O)[C@@H]1O[C@H]1C(=O)NC(CC(C)C)C(=O)N1CCN(Cc2ccc(OC)c(OC)c2OC)CC1 (stereo partly shown) [NCO 700] | 33 | > 10000 | > 9950 | > 9950 | 16 | – |
| CCC(CC)Nc1cc(C)nc(Oc2c(C)cc(C)cc2C)c1C [CP-376395] | 884 | 6260 | – | – | 835 | CC50 (HepG2 cells [8]; HepG2 cells): 2500 nM; CC50 (HEK293T cells [9]; HEK293T cells): > 9950 nM |
| COc1cccc2c1C(=O)c1c(O)c3c(c(O)c1C2=O)C[C@@](O)(C(=O)CO)C[C@@H]3O[C@H]1C[C@H](N2CCO[C@H](OC)C2)[C@H](O)[C@H](C)O1 [Nemorubicin, reference compound] | – | – | – | – | – | EC50 (P. falciparum Dd2-HLH [5]; [19]): 4 nM; EC50 (P. falciparum Dd2-HLH [1]; [20]): 9 nM; EC50 [2, 21]: 9 nM; CC50 (in vitro [6]): 5 nM; CC50 at 72 h [10]: 2 nM |
| CCCCCN=C(N)Nc1nc(-c2cnc(C)[nH]2)cs1 [CP 66948] | 977 | > 10000 | > 9950 | > 9950 | 615 | – |
| CC(C)CCNC(=O)C(CC(C)C)NC(=O)C1OC1C(=O)O (stereo not shown) [EP-475] | 313 | > 10000 | > 9950 | > 9990 | 267 | – |
| Oc1ccc(CCN2CCC(Nc3nc4ccccc4n3Cc3ccc(F)cc3)CC2)cc1 [Desmethylastemizole] | 47 | 70 | – | – | 23 | CC50 (HepG2 cells [8]; HepG2 cytotoxicity): 58 nM; CC50 (HEK293T cells [9]; HEK293T cytotoxicity): 5920 nM |
| Cc1c2oc3c(C)ccc(C(=O)N[C@@H]4C(=O)N[C@H](C(C)C)C(=O)N5CCC[C@H]5C(=O)N(C)CC(=O)N(C)[C@@H](C(C)C)C(=O)O[C@@H]4C)c3nc-2c(C(=O)N[C@@H]2C(=O)N[C@H](C(C)C)C(=O)N3CCC[C@H]3C(=O)N(C)CC(=O)N(C)[C@@H](C(C)C)C(=O)O[C@@H]2C)c(N)c1=O [Dactinomycin, reference compound] (I: T[dV]P[Sar][NMeV] / II: T[dV]P[Sar][NMeV]; ester I:1-I:C, II:1-II:C; linker I:N-II:N via Actinocin(9to1)) | – | – | – | – | – | EC50 (P. falciparum Dd2-HLH [5]; [19]): 3 nM; EC50 (P. falciparum Dd2-HLH [1]; [20]): 8 nM; EC50 [2, 21]: 73 nM; CC50 (in vitro [6]): 9 nM; CC50 at 72 h [10]: 3 nM |
| NC(=O)[C@@H](CC1CC1)[C@@H](CCC(F)(F)F)C(=O)N[C@H]1N=C(c2ccccc2)c2cccc(F)c2NC1=O [BMS-983970] | 84 | 102 | > 9950 | 59 | 63 | – |
| NC(=O)C(c1ccccc1)(c1ccccc1)[C@@H]1CCN(CCc2ccc3c(c2)CCO3)C1 [Darifen/Acin Hydrobromide] | – | – | – | – | – | EC50 (P. falciparum Dd2-HLH [5]; [15]): 1430 nM; EC50 (P. falciparum Dd2-HLH [1]; [16]): 324 nM; EC50 [2, 17]: > 10000 nM; CC50 (in vitro [6]): > 9950 nM; CC50 at 72 h [10]: > 9990 nM |
| Cc1cc2c(C(N)=O)cccc2n1-c1nc2c(c(NCc3ccccc3)n1)COCC2 [CB-5083] | – | – | – | – | – | EC50 (P. falciparum Dd2-HLH [5]; [15]): 233 nM; EC50 (P. falciparum Dd2-HLH [1]; [16]): 608 nM; EC50 ([2]; Plasmodium berghei, HepG2, 48 h, read-out: Liver stage 48h EC50): 540 nM; CC50 (in vitro [6]): 469 nM; CC50 at 72 h [10]: 468 nM |
| C=C/C=C/C[C@@H](C)[C@@H](O)[C@H]1C(=O)N[C@@H](CC)C(=O)N(C)CC(=O)N(C)[C@@H](CC(C)C)C(=O)N[C@@H](C(C)C)C(=O)N(C)[C@@H](CC(C)C)C(=O)N[C@@H](C)C(=O)N[C@H](C)C(=O)N(C)[C@@H](CC(C)C)C(=O)N(C)[C@@H](CC(C)C)C(=O)N(C)[C@@H](C(C)C)C(=O)N1C [Voclosporin] | 254 | – | – | – | – | CC50 (HepG2 cells [8]; HepG2 cytotoxicity): > 9950 nM; CC50 (HEK293T cells [9]; HEK293T cytotoxicity): > 9950 nM |
| CS(=O)(=O)c1ccc(-c2cnc(N)c(-c3ccc(C(F)(F)F)nc3)c2)cc1 [MMV390048] | – | – | – | – | – | EC50 [11]: 28 nM |
| CCCNCC(O)COc1ccccc1C(=O)CCc1ccccc1 (stereo not shown) [Propafenone SR] | – | – | > 9950 | > 9990 | – | EC50 (P. falciparum Dd2-HLH [5]; read-out: Blood stage 48h EC50): 253 nM; EC50 (P. falciparum Dd2-HLH [1]; read-out: Blood stage 72h EC50): 566 nM; EC50 ([2]; read-out: Liver stage 48h EC50): > 10000 nM |
| CCN(CC)CC(O)CNc1c2ccc(Cl)cc2nc2ccc(OC)cc12 (stereo not shown) [Acranil] | 20 | 312 | – | – | 8 | CC50 (HepG2 cells [8]; HepG2 cells): 1110 nM; CC50 (HEK293T cells [9]; HEK293T cells): 1430 nM |
| CN(C)CCNc1nc2cc(O)ccc2c2c1C(=O)c1ccccc1-2 [TAS-103] | 756 | 1500 | – | – | 574 | CC50 (HepG2 cells [8]; HepG2 cytotoxicity): 766 nM; CC50 (HEK293T cells [9]; HEK293T cytotoxicity): 334 nM |
| Cn1/c(=N\C#N)n(-c2ccc(C(C)(C)C#N)nc2)c2c3cc(-c4cnc(N)c(C(F)(F)F)c4)ccc3ncc21 [Panulisib] | 159 | 77 | 11 | 10 | 19 | – |
| CCCCCCCCN=c1ccn(CCCCCCCC)cc1 [Pirtenidine] | 615 | 838 | – | – | – | CC50 (HepG2 cells [8]; HepG2 cells): 1080 nM; CC50 (HEK293T cells [9]; HEK293T cells): 279 nM |
| CCN(CC)CCN1C(=O)c2c(c3c4cccc(Cl)c4n([C@@H]4O[C@H](CO)[C@@H](OC)[C@H](O)[C@H]4O)c3c3[nH]c4c(Cl)cccc4c23)C1=O [Becatecarin] | 194 | 7160 | 143 | 158 | – | – |
| Cc1cc(-c2cc(O)ccc2Cl)cc2nnc(Nc3ccc(OCCN4CCCC4)cc3)nc12 [TG 100572 (Hydrochloride)] | 589 | 642 | – | – | 122 | CC50 (HepG2 cells [8]; HepG2 cells): 3440 nM; CC50 (HEK293T cells [9]; HEK293T cells): 1730 nM |
| CCCC1(CCC)CCC2(CCN(CCCN(CC)CC)C2)CC1 [Atiprimod dimaleate] | 430 | 7330 | – | – | 43 | CC50 (HepG2 cells [8]; HepG2 cells): 2990 nM; CC50 (HEK293T cells [9]; HEK293T cells): 1720 nM |
| Cc1cn2c(-c3ccnc(NCC4CC4)n3)c(-c3ccc(F)c(NS(C)(=O)=O)c3)nc2cc1CN(C)C [ML10] | – | – | – | – | – | EC50 [12]: 2.1 nM; IC50 (PfPKG): 0.16 nM |
| CN(C)CCOc1ccc2[nH]c(C(=O)NCC#Cc3ccc(C(=O)NO)cc3)cc2c1 [CRA-026440] | 63 | 2490 | 836 | 107 | 15 | – |
